According to publication PMC6856039 (Investigational New Drugs, 2019):
Like-named read-outs stand apart in the source and are kept apart here. Marks after values point to notes of the source that are not given here.

Assays:
[1] = Procedure: PK parameters were evaluated on Day 1 and Day 15.
The planned sample size was 300 patients maximum, including 54 patients in the dose escalation phase, seven patients at each level of the first stage of the expansion phase, 20 patients at each level in the second stage of the expansion phase, and in the extension phase, 100, 40, 20, and 10 patients in Cohorts A, B, C, and D, respectively. The main analysis sets in each study phase are defined in Supplementary Table 1 (Online Resource 3). Safety and efficacy data are summarized using descriptive statistics. PK parameters were calculated according to the non-compartmental method. ORR, DCR, and median PFS were calculated along with 95% CIs. The statistical software used to perform statistical analyses was SAS version 9.2 (SAS Inc., Cary, NC, USA, RRID: SCR_008567). For the PK analysis, Phoenix® WinNonlin® Ver. 6.3 and 6.4 (Certara, Princeton, NJ, USA) was used.

[2] = tested on: T790M-positive NSCLC patients; assay type: in vivo, human; conditions: for median PFS / Best overall response: Not evaluable / Best overall response: Partial response / Best overall response: Progression disease / Best overall response: Stable disease / Disease control rate / Objective response rate: T790M-positive
Excerpt: To assess the EGFR T790M mutation tumor status, mandatorily collected plasma from patients was processed, and isolated circulating cell-free DNA (cfDNA) was submitted for laboratory testing (Fluorescence Resonance Energy Transfer-based Preferential Formation Assay [F-PHFA] method) by central review. In some patients, collected tumor biopsies were submitted for EGFR genotyping (Therascreen® EGFR RGQ PCR kit [Qiagen, Venlo, Netherlands]).
Antitumor efficacy was based on objective tumor assessments according to the Response Evaluation Criteria in Solid Tumors criteria (version 1.1, 2009). Computed tomography scans were performed at baseline, every 6 weeks after starting administration, and at the time of discontinuation. The ORR, DCR, and PFS at each phase were assessed according to dose level and regimen. ORR was defined as the proportion of patients in which the best overall response was determined to be CR or PR and was calculated in patients with measurable lesions. DCR was defined as the proportion of patients in which the best overall response was determined to be CR, PR, or stable disease. PFS was defined as the median time from enrollment to PD or death from any cause.

[3] = BID 8 mg/day, cycle 1, day 15, n = 9
[4] = BID 12 mg/day, cycle 1, day 15, n = 4
[5] = QD 4 mg/day, cycle 1, day 15, n = 3
[6] = QD 8 mg/day, cycle 1, day 15, n = 9
[7] = QD 10 mg/day, cycle 1, day 15, n = 7
[8] = QD 12 mg/day, cycle 1, day 15, n = 2
[9] = QD 16 mg/day, cycle 1, day 15, n = 1

C=CC(=O)N[C@H]1CCc2c(-c3cnc4ccccc4c3)c3c(N)ncnc3n2C1 [TAS-121]
AUC0-12h, mean (standard deviation) [1, 3]: 1520 (520) ng•h/mL
Cmax, mean (standard deviation) [1, 3]: 290 (104) ng/mL
T1/2, mean (standard deviation) [1, 3]: 5.11 (1.48) h
Tmax, median (minimum–maximum) [1, 3]: 1.00 (0.50–1.00) h
AUC0-12h, mean (standard deviation) [1, 4]: 5860 (1460) ng•h/mL
Cmax, mean (standard deviation) [1, 4]: 772 (201) ng/mL
T1/2, mean (standard deviation) [1, 4]: 8.84 (3.31) h
Tmax, median (minimum–maximum) [1, 4]: 2.00 (1.00–3.00) h
AUC0-24h, mean (standard deviation) [1, 5]: 2670 (1110) ng•h/mL
Cmax, mean (standard deviation) [1, 5]: 304 (13) ng/mL
T1/2, mean (standard deviation) [1, 5]: 8.83 (2.88) h
Tmax, median (minimum–maximum) [1, 5]: 1.00 (1.00–1.00) h
AUC0-24h, mean (standard deviation) [1, 6]: 4860 (2520) ng•h/mL
Cmax, mean (standard deviation) [1, 6]: 569 (312) ng/mL
T1/2, mean (standard deviation) [1, 6]: 8.60 (2.49) h
Tmax, median (minimum–maximum) [1, 6]: 1.00 (0.50–2.00) h
AUC0-24h, mean (standard deviation) [1, 7]: 8040 (4190) ng•h/mL
Cmax, mean (standard deviation) [1, 7]: 900 (376) ng/mL
T1/2, mean (standard deviation) [1, 7]: 8.61 (1.73) h
Tmax, median (minimum–maximum) [1, 7]: 2.00 (0.75–4.00) h
T1/2 ([1]; QD 12 mg/day, cycle 1, day 15, based on one patient): 8.12 (NA)^b h
AUC0-24h, mean [1, 8]: 9500 (NA) ng•h/mL
Cmax, mean [1, 8]: 1180 (NA) ng/mL
Tmax, median (minimum–maximum) [1, 8]: 1.12 (1.00–1.23) h
AUC0-24h [1, 9]: 5870 (NA) ng•h/mL
Cmax [1, 9]: 825 (NA) ng/mL
T1/2 [1, 9]: 6.44 (NA) h
Tmax [1, 9]: 2.00 (NA) h
objective response rate (ORR) ([2]; T790M-positive patients with measurable lesions, n = 86, regardless of the dosage): 28%
objective response rate (ORR) ([2]; T790M-positive patients, 8 mg/day BID): 39%
median PFS ([2]; 4 mg/day QD, 23 patients/17 events): 165 days
Best overall response: Not evaluable ([2]; 4 mg/day QD, N = 15): 1 (6.7) n (%)
Best overall response: Partial response ([2]; 4 mg/day QD, N = 15): 4 (26.7) n (%)
Best overall response: Progression disease ([2]; 4 mg/day QD, N = 15): 7 (46.7) n (%)
Best overall response: Stable disease ([2]; 4 mg/day QD, N = 15): 3 (20.0) n (%)
Disease control rate ([2]; 4 mg/day QD, N = 15): 7 (46.7) n (%)
Objective response rate ([2]; 4 mg/day QD, N = 15): 4 (26.7) n (%)
median PFS ([2]; 8 mg/day BID, 36 patients/21 events): 253 days
Best overall response: Not evaluable ([2]; 8 mg/day BID, N = 33): 1 (3.0) n (%)
Best overall response: Partial response ([2]; 8 mg/day BID, N = 33): 13 (39.4) n (%)
Best overall response: Progression disease ([2]; 8 mg/day BID, N = 33): 8 (24.2) n (%)
Best overall response: Stable disease ([2]; 8 mg/day BID, N = 33): 11 (33.3) n (%)
Disease control rate ([2]; 8 mg/day BID, N = 33): 24 (72.7) n (%)
Objective response rate ([2]; 8 mg/day BID, N = 33): 13 (39.4) n (%)
median PFS ([2]; 8 mg/day QD, 33 patients/25 events): 125 days
Best overall response: Not evaluable ([2]; 8 mg/day QD, N = 28): 0 (0.0) n (%)
Best overall response: Partial response ([2]; 8 mg/day QD, N = 28): 6 (21.4) n (%)
Best overall response: Progression disease ([2]; 8 mg/day QD, N = 28): 11 (39.3) n (%)
Best overall response: Stable disease ([2]; 8 mg/day QD, N = 28): 11 (39.3) n (%)
Disease control rate ([2]; 8 mg/day QD, N = 28): 17 (60.7) n (%)
Objective response rate ([2]; 8 mg/day QD, N = 28): 6 (21.4) n (%)
Best overall response: Not evaluable ([2]; 10 mg/day QD, N = 7): 0 (0.0) n (%)
Best overall response: Partial response ([2]; 10 mg/day QD, N = 7): 1 (14.3) n (%)
Best overall response: Progression disease ([2]; 10 mg/day QD, N = 7): 3 (42.9) n (%)
Best overall response: Stable disease ([2]; 10 mg/day QD, N = 7): 3 (42.9) n (%)
Disease control rate ([2]; 10 mg/day QD, N = 7): 4 (57.1) n (%)
Objective response rate ([2]; 10 mg/day QD, N = 7): 1 (14.3) n (%)
median PFS ([2]; 10 mg/day QD, seven patients/three events): 401 days
Best overall response: Not evaluable ([2]; 12 mg/day BID, N = 3): 1 (33.3) n (%)
Best overall response: Partial response ([2]; 12 mg/day BID, N = 3): 0 (0.0) n (%)
Best overall response: Progression disease ([2]; 12 mg/day BID, N = 3): 1 (33.3) n (%)
Best overall response: Stable disease ([2]; 12 mg/day BID, N = 3): 1 (33.3) n (%)
Disease control rate ([2]; 12 mg/day BID, N = 3): 1 (33.3) n (%)
Objective response rate ([2]; 12 mg/day BID, N = 3): 0 (0.0) n (%)
Best overall response: Not evaluable ([2]; 12 mg/day QD, N = 1): 0 (0.0) n (%)
Best overall response: Partial response ([2]; 12 mg/day QD, N = 1): 0 (0.0) n (%)
Best overall response: Progression disease ([2]; 12 mg/day QD, N = 1): 1 (100.0) n (%)
Best overall response: Stable disease ([2]; 12 mg/day QD, N = 1): 0 (0.0) n (%)
Disease control rate ([2]; 12 mg/day QD, N = 1): 0 (0.0) n (%)
Objective response rate ([2]; 12 mg/day QD, N = 1): 0 (0.0) n (%)
Best overall response: Not evaluable ([2]; Total, N = 87): 3 (3.4) n (%)
Best overall response: Partial response ([2]; Total, N = 87): 24 (27.6) n (%)
Best overall response: Progression disease ([2]; Total, N = 87): 31 (35.6) n (%)
Best overall response: Stable disease ([2]; Total, N = 87): 29 (33.3) n (%)
Disease control rate ([2]; Total, N = 87): 53 (60.9) n (%)
Objective response rate ([2]; Total, N = 87): 24 (27.6) n (%)
